Here are results for eight compounds from article PMC7729925, “Selective hepatitis B and D virus entry inhibitors from the group of pentacyclic lupane-type betulin-derived triterpenoids” (Scientific Reports, 2020).

Where “and” joins values, the source holds several entries; their conditions need not be identical. Equal values may be shown once. Read-outs that look alike come from different tables or passages of the source.

In data set [1] the target is T1, NTCP (Homo sapiens, UniProt Q14973).
T1 construct: expressed in transfected cells
T1 sequence (Q14973 1-349): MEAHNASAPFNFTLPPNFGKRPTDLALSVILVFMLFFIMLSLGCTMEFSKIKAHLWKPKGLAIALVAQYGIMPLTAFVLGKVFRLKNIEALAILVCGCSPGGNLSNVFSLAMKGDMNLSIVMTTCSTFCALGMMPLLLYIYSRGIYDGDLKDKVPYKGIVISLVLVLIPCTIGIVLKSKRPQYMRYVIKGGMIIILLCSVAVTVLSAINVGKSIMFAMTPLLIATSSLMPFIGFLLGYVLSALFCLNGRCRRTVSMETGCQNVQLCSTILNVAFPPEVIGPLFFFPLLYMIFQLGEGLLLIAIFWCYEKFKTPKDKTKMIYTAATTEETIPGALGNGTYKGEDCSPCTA
More on the design: method as in earlier work. Conditions: ref 25 (Shimura et al.); read-out: IC50 bile acid transport inhibition; cited from earlier work.

A further data set deals with HBV. Also noted: method as in earlier work. Conditions: ref 25 (Shimura et al.); read-out: IC50 in vitro HBV infection; cited from earlier work.
In a further data set the test system is HDV. Briefly: in vitro HDV infection of NTCP-HepG2 cells. Type of data set: cell-based. As to conditions: for inhibition of in vitro HDV infection: 5–300 µM (2, 19) or 5–600 µM (4, 17), 6 h with 700 genome equivalents/cell, HDAg immunostaining day 9. The method, then:
At day 9 post infection, cells were fixed and an immunostaining against the HDAg was performed, as a marker of HDV infection. The number of infected cells per well was determined by fluorescence microscopy. NTCP-HepG2 cells incubated without inhibitor were used as control (set to 100% infection rate). Infection experiments in the presence of 0.5 µM myr-preS1_2-48 peptide served as control for the 0% infection rate. Scale bars: 100 µm. Data represent means ± SEM of three independent experiments each with triplicate determinations (n = 9). […] Data were combined from two independent experiments, each with quadruplicate determinations (n = 8). (h) Cell viability was determined with an LDH cytotoxicity assay. HepG2 cells treated with HGM w/o test compound were used as positive control and lysed cells as negative control.
For infection experiments NTCP-HepG2 cells were cultured in 96-well plates in Hepatocyte Growth Medium (HGM) consisting of William’s E Medium (Thermo Fisher Scientific) containing 2% bovine serum albumin (BSA, Roth), 2 mM L-Glutamin (Thermo Fisher Scientific), 100 µg/ml gentamicin (Thermo Fisher Scientific), 10 nM dexamethasone (Sigma-Aldrich), 1 mM sodium pyruvate (Thermo Fisher Scientific), 1 × Insulin-Transferrin-Selen (Thermo Fisher Scientific), 2% DMSO (Merck, Darmstadt, Germany), 4% polyethylene glycol (Sigma-Aldrich) and 2 µg/ml doxycycline (Sigma-Aldrich) as reported. Subsequently, cells were washed with DMEM and cultured in HGM supplemented with 2% DMSO, 2% BSA and 2 µg/ml doxycycline. […] HDV stock solved in 20 µl HGM per well was added for infection and cells were incubated for 6 h with final concentration of 700 genome equivalents/cell of HDV particles. HDV production was done in vitro as described before[55],[56]. RT-qPCR was performed to determine genome equivalents. Every three days medium was changed until cells were fixed at 9 days post infection with 3% paraformaldehyde (Sigma-Aldrich) in PBS, for 30 min at room temperature (RT). Cells were permeabilized with 0.2% Triton X 100 (Roth) in PBS for 30 min at RT, and blocked by incubation with 5% bovine serum albumin (Roth) in PBS, for 30 min at RT. Then, cells were immunostained with purified human anti-HDV-positive serum at 37 °C for 1 h (1:400 dilution). Goat anti-human IgG secondary antibody coupled to Alexa Fluor fluorophore (1:400 dilution, Thermo Fisher Scientific) was added for 1 h at 37 °C for detection of Hepatitis Delta antigen (HDAg) as described before.

For a further data set, the system named is HBV/HDV. Also noted: method as in PMID 15650187. As to conditions: cited from earlier work.
Data set [2] addresses T1, NTCP. Briefly: [3H]preS1 (myr-preS1_2-48 lipopeptide) binding inhibition in NTCP-HEK293 cells. As to conditions: for IC50: NTCP-HEK293 cells; for Selectivity index: ratio of mean IC50 [3H]TC transport inhibition / IC50 [3H]preS1 binding inhibition. Here is the method:
(§1) The major goal of the present study was to analyze in parallel the effect of inhibitors on both, bile acid transport via NTCP and myr-preS1_2-48 lipopeptide binding to NTCP in a cell culture system. […] NTCP-HEK293 cells were seeded onto 96-well plates and were incubated with tetracycline in order to induce expression of the human NTCP protein. […] Experiments were performed with solvent alone (set to 100%) and with increasing concentrations of the indicated inhibitors. […] Half maximal inhibitory concentrations (IC50) were calculated by nonlinear regression analysis using the equation log(inhibitor) versus response (GraphPad Prism). […] Data represent means ± SD of quadruplicate determinations of representative experiments. […] In parallel, [^3H]preS1 peptide binding experiments were performed with a tritium-labelled myr-preS1_2-48 lipopeptide -HBV subgenotype D3- that was purchased from Pharmaron (120 Ci/mmol, 1 mCi/ml, Cardiff, UK). […] Experiments were stopped after 10 min by two-times washing with ice-cold PBS. For 0% uptake/binding control, the NTCP-HEK293 cells were not induced with tetracycline (-tet). […] Transport rates and [^3H]preS1 binding were determined in counts per minute (cpm). […] IC50 values were calculated from quadruplicate determinations by GraphPad Prism 6 (GraphPad, San Diego, CA, USA).

The target of data set [3] is T1, NTCP. Briefly: [3H]TC transport (bile acid uptake) inhibition in NTCP-HEK293 cells. The class given is cell-based. The method, then: as §1
Another data set has as its system mice. As to conditions: cited from earlier work.
The subject of another data set is rats. As to conditions: single i.p. application of 400 mg/kg; cited from earlier work.
[4] abbreviates: IC50 ([3H]preS1 binding), 95% confidence interval, inhibition of 5 nM [3H]preS1 binding, 10 min, 37 °C.
The mark [5] stands for this setting: 95% confidence interval, inhibition of 1 µM [3H]TC uptake, NTCP-HEK293 cells, 10 min, 37 °C, read-out: IC50 ([3H]TC uptake).
Setting [6] is: mean IC50, 5 nM [3H]preS1, standard pH 7.4, read-out: IC50 [3H]preS1 binding inhibition.
Setting [7] is: 95% confidence interval, inhibition of 5 nM [3H]preS1 binding, 10 min, 37 °C, read-out: IC50 ([3H]preS1 binding).

By IC50 is commonly meant the point on the concentration scale where inhibition reaches its midpoint.

Take `CC=CCC(C)C(O)C1C(=O)NC(CC)C(=O)N(C)C(OCCOC)C(=O)N(C)C(CC(C)(C)O)C(=O)NC(C(C)C)C(=O)N(C)C(CC(C)C)C(=O)NC(C)C(=O)NC(C)C(=O)N(C)C(CC(C)C)C(=O)N(C)C(CC(C)C)C(=O)N(C)C(C(C)C)C(=O)N1C` (centres unmarked) [SCY995]: the IC50 at NTCP [1] is > 25 µM; in the data set on HBV, < 8 µM.

For the compound `CCCCCCCCCCCCCC(=O)NCC(=O)N[C@@H](CCC(N)=O)C(=O)N[C@@H](CC(N)=O)C(=O)N[C@@H](CC(C)C)C(=O)N[C@@H](CO)C(=O)N[C@H](C(=O)N[C@@H](CO)C(=O)N[C@@H](CC(N)=O)C(=O)N1CCC[C@H]1C(=O)N[C@@H](CC(C)C)C(=O)NCC(=O)N[C@@H](Cc1ccccc1)C(=O)N[C@@H](Cc1ccccc1)C(=O)N1CCC[C@H]1C(=O)N[C@@H](CC(=O)O)C(=O)N[C@@H](Cc1c[nH]cn1)C(=O)N[C@@H](CCC(N)=O)C(=O)N[C@@H](CC(C)C)C(=O)N[C@@H](CC(=O)O)C(=O)N1CCC[C@H]1C(=O)N[C@@H](C)C(=O)N[C@@H](Cc1ccccc1)C(=O)N[C@@H](CCCNC(=N)N)C(=O)N[C@@H](C)C(=O)N[C@@H](CC(N)=O)C(=O)N[C@H](C(=O)N[C@@H](C)C(=O)N[C@@H](CC(N)=O)C(=O)N1CCC[C@H]1C(=O)N[C@@H](CC(=O)O)C(=O)N[C@@H](Cc1c[nH]c2ccccc12)C(=O)N[C@@H](CC(=O)O)C(=O)N[C@@H](Cc1ccccc1)C(=O)N[C@@H](CC(N)=O)C(=O)N1CCC[C@H]1C(=O)N[C@@H](CC(N)=O)C(=O)N[C@@H](CCCCN)C(=O)N[C@@H](CC(=O)O)C(=O)N[C@H](C(=O)N[C@@H](Cc1c[nH]c2ccccc12)C(=O)N1CCC[C@H]1C(=O)N[C@@H](CC(=O)O)C(=O)N[C@@H](C)C(=O)N[C@@H](CC(N)=O)C(=O)N[C@@H](CCCCN)C(=O)N[C@H](C(=O)NCC(N)=O)C(C)C)[C@@H](C)O)[C@@H](C)O)[C@@H](C)O` [myr-preS1_2-48 lipopeptide, reference compound], the “in vitro HDV infection with peptide control” value with HDV (co-incubation with 0.5 µM, set to 0% infection rate) is reported as “completely abolished infection”. In the data set with HBV/HDV, the “IC50 of in vitro HBV/HDV infection” value was “low nanomolar range”.

Consider `C=C(C)[C@@H]1CC[C@]2(C)CC[C@]3(C)[C@H](CC[C@@H]4[C@@]5(C)CCC(=O)C(C)(C)[C@@H]5CC[C@]43C)[C@@H]12` [Compound 17, Lupenone], for which the “inhibition of in vitro HDV infection” value in the data set with HDV is listed as “significantly blocked”. In addition, the IC50 at NTCP [2] (setting [4]) was 13.1 to 35.5 µM; at NTCP [2] (IC50 [3H]preS1 binding inhibition, mean IC50, 5 nM [3H]preS1, standard pH 7.4) it was 11 to 50 µM; at NTCP [3] (read-out: IC50 ([3H]TC uptake)), 146 to 397 µM.

Consider `C=C(C)[C@@H]1CC[C@]2(C(=O)O)CC[C@]3(C)[C@H](CC[C@@H]4[C@@]5(C)CC[C@H](O)C(C)(C)[C@@H]5CC[C@]43C)[C@@H]12` [Compound 4, Betulinic acid], for which the “inhibition of in vitro HDV infection” value with HDV is given as “significantly blocked”. For the same compound, in the data set with mice (100 mg/kg i.p. every 3–4 days for a total of six treatments), the “toxic effects in mice, repeated dose” value is given as “no toxic effects were observed”. The “toxic effects in mice, single dose” value in the data set on mice (500 mg/kg i.p. once) was “no toxic effects were observed”. In addition, the “toxic effects in rats” value with rats is given as “no toxic effects were observed”.

Consider `C=C(C)[C@@H]1CC[C@]2(C)CC[C@]3(C)[C@H](CC[C@@H]4[C@@]5(C)CC[C@H](O)C(C)(C)[C@@H]5CC[C@]43C)[C@@H]12` [Compound 3, Lupeol], for which the IC50 at NTCP [2] (setting [4]) was 26.9 to 97.9 µM; on NTCP [3] it was > 1000 µM; on NTCP [3] (setting [5]), > 1000 µM.

As for `C=C(C)[C@@H]1CC[C@]2(C(=O)N[C@@H](CC(=O)OC)C(=O)OC)CC[C@]3(C)[C@H](CC[C@@H]4[C@@]5(C)CCC(=O)C(C)(C)[C@@H]5CC[C@]43C)[C@@H]12` [Compound 19, Betulonoyl dimethyl-L-aspartate], the “inhibition of in vitro HDV infection” value in the data set on HDV was “significantly blocked”. The IC50 on NTCP [2] (setting [6]) fell in the range of 11 to 50 µM; on NTCP [3] (setting [5]), 298 to 1430 µM. For the same compound, the Selectivity index on NTCP [2] is 28.

`C=C(C)[C@@H]1CC[C@]2(COC(=O)CC(C)(C)CC(=O)O)CC[C@]3(C)[C@H](CC[C@@H]4[C@@]5(C)CC[C@H](OC(=O)CC(C)(C)CC(=O)O)C(C)(C)[C@@H]5CC[C@]43C)[C@@H]12` [Compound 12, 3,28-Di-O-(3,3-dimethylglutaroyl)betulin]: the figures for the IC50 on NTCP [2] (setting [7]) and on NTCP [3] (setting [5]) were 4.97 to 10.1 µM and 4.17 to 10.7 µM, respectively. Besides, on NTCP [2], the Selectivity index is listed as 1.

With `C=C(C)[C@@H]1CC[C@]2(C(=O)O)CC[C@]3(C)[C@H](CC[C@@H]4[C@@]5(C)CC[C@H](OC(C)=O)C(C)(C)[C@@H]5CC[C@]43C)[C@@H]12` [Compound 21, 3-O-Acetylbetulinic acid], the IC50 at NTCP [2] (setting [7]) is 1.81 to 5.31 µM; on NTCP [2] (setting [6]), 2 to 3 µM and < 10 µM; on NTCP [3] (setting [5]), 7.19 to 30.3 µM. Besides, the Selectivity index at NTCP [2] stood at 5.
